Experimental data from US20250368595A1, “NOVEL MOLECULES” (XENIOPRO GmbH, priority 2018, published 2025).

Legend:
NB-4 cells = assay: alamarBlue proliferation assay with NB-4 cells; assay type: cell-based, human; conditions: relative to DMSO basis level 1.0
Source text: (§1) The antiproliferative activities of compounds falling under formula (Ia), (Ib) and (Ic), respectively, were investigated on cells or cell lines originating from a disorder of the haematopoietic system, including the myeloid cell compartment and the lymphoid cell compartment (T-cells and B-cells), the neuroendocrine system, the cervix, the breast, the ovaries, the lung, the gastrointestinal tract, and the mucosal epithelium, as well as from the skin epithelium and from the muscle. To this end, HL-60 cells, NB-4 cells, HH cells, RPMI-8402 cells, TANQUE cells, TT cells, HeLa cells, MDA-MB-231 cells, FU-OV-1 cells, LOU-NH91 cells, 23132/87 cells, CAL-27 cells, BHY cells, SCC-25 cells, A-431 cells, human primary epidermal keratinocytes (HPEK), and C2C12 cells were seeded into 96-well plates suitable for fluorescence assays (CORNING #3598) at following initial cell numbers: 1000 cells per well for HL-60; 1000 cells per well for NB-4; 5000 cells per well for HH; 5000 cells per well for RPMI-8402; 1500 cells per well for TANOUE; 9000 cells per well for TT; 2000 cells per well for HeLa; 3000 cells per well for MDA-MB-231; 3000 cells per well for FU-OV-1; 4000 cells per well for LOU-NH91; 2000 cells per well for 23132/87; 2000 cells per well for CAL-27; 1500 cells per well for BHY; 1500 cells per well for SCC-25; 700 cells per well for A-431; 1000 cells per well for HPEK; 500 cells per well for C2C12. […] The readout was taken with a multi-well plate-reader in the fluorescence mode with applying a filter for excitation at 560 nm (band width 10 nm) and for emission at 590 nm (band width 10 nm). […]
(§2) The assays were performed in duplicate or more replicates of independent single experiments each containing a six-fold replicate for every condition. For every individual plate, the measured fluorescence intensity values of the conditions with compound treatment were normalized • against the corresponding equally weighted arithmetic mean of the fluorescence intensity values of the six DMSO treated control wells in order to obtain the relative values to a baseline level of 1.0. […]

RPMI-8402 cells = assay: alamarBlue proliferation assay with RPMI-8402 cells; assay type: cell-based, human; conditions: relative to DMSO basis level 1.0
Source text: as §1, §2

HL-60 cells = assay: alamarBlue proliferation assay with HL-60 cells; assay type: cell-based, human; conditions: relative to DMSO basis level 1.0
Source text: as §1, §2

FU-OV-1 cells = assay: alamarBlue proliferation assay with FU-OV-1 cells; assay type: cell-based, human; conditions: relative to DMSO basis level 1.0
Source text: as §1, §2

HPEKp cells = assay: alamarBlue proliferation assay with HPEKp cells; assay type: cell-based, human
Source text: as §1, §2

HH cells = assay: alamarBlue proliferation assay with HH cells; assay type: cell-based, human; conditions: relative to DMSO basis level 1.0
Source text: as §1, §2

MDA-MB-231 cells = assay: alamarBlue proliferation assay with MDA-MB-231 cells; assay type: cell-based, human; conditions: 20 μM, relative to DMSO basis level 1.0
Source text: The antiproliferative activities of compounds falling under formula (Ia), (Ib) and (Ic), respectively, were investigated on cells or cell lines originating from a disorder of the haematopoietic system, including the myeloid cell compartment and the lymphoid cell compartment (T-cells and B-cells), the neuroendocrine system, the cervix, the breast, the ovaries, the lung, the gastrointestinal tract, and the mucosal epithelium, as well as from the skin epithelium and from the muscle. […] The readout was taken with a multi-well plate-reader in the fluorescence mode with applying a filter for excitation at 560 nm (band width 10 nm) and for emission at 590 nm (band width 10 nm). […]
as §2

23132/87 cells = assay: alamarBlue proliferation assay with 23132/87 cells; assay type: cell-based, human; conditions: relative to DMSO basis level 1.0
Source text: as §1, §2

SCC-25 cells = assay: alamarBlue proliferation assay with SCC-25 cells; assay type: cell-based, human
Source text: as §1, §2

CAL-27 cells = assay: alamarBlue proliferation assay with CAL-27 cells; assay type: cell-based, human; conditions: relative to DMSO basis level 1.0
Source text: as §1, §2

C2C12 cells = assay: alamarBlue proliferation assay with C2C12 cells; assay type: cell-based, murine
Source text: as §1, §2

TANOUE cells = assay: alamarBlue proliferation assay with TANOUE cells; assay type: cell-based, human; conditions: relative to DMSO basis level 1.0
Source text: as §1, §2

A-431 cells = assay: alamarBlue proliferation assay with A-431 cells; assay type: cell-based, human
Source text: as §1, §2

TT cells = assay: alamarBlue proliferation assay with TT cells; assay type: cell-based, human; conditions: relative to DMSO basis level 1.0
Source text: as §1, §2

BHY cells = assay: alamarBlue proliferation assay with BHY cells; assay type: cell-based, human; conditions: relative to DMSO basis level 1.0
Source text: as §1, §2

LOU-NH91 cells = assay: alamarBlue proliferation assay with LOU-NH91 cells; assay type: cell-based, human; conditions: relative to DMSO basis level 1.0
Source text: as §1, §2

HeLa cells = assay: alamarBlue proliferation assay with HeLa cells; assay type: cell-based, human; conditions: relative to DMSO basis level 1.0
Source text: as §1, §2

Compound	Activity Range: weighted arithmetic mean (AVEw) of normalized fluorescence intensity (NB-4 cells; 20 μM)	Activity Range: weighted arithmetic mean (AVEw) of normalized fluorescence intensity (RPMI-8402 cells; 20 μM)	Activity Range: weighted arithmetic mean (AVEw) of normalized fluorescence intensity (HL-60 cells; 20 μM)	Activity Range: weighted arithmetic mean (AVEw) of normalized fluorescence intensity (FU-OV-1 cells; 20 μM)	Activity Range: weighted arithmetic mean (AVEw) of normalized fluorescence intensity, relative to DMSO basis level of 1.0 (HPEKp cells; control at 20 μM)	Activity Range: weighted arithmetic mean (AVEw) of normalized fluorescence intensity (HH cells; 20 μM)	Activity Range: weighted arithmetic mean (AVEw) of normalized fluorescence intensity (MDA-MB-231 cells)	Activity Range: weighted arithmetic mean (AVEw) of normalized fluorescence intensity (23132/87 cells; 20 μM)	Activity Range: weighted arithmetic mean (AVEw) of normalized fluorescence intensity, relative to DMSO basis level of 1.0 (SCC-25 cells; 20 μM)	Activity Range: weighted arithmetic mean (AVEw) of normalized fluorescence intensity (CAL-27 cells; 20 μM)	Activity Range: weighted arithmetic mean (AVEw) of normalized fluorescence intensity, relative to DMSO basis level of 1.0 (C2C12 cells; 20 μM)	Activity Range: weighted arithmetic mean (AVEw) of normalized fluorescence intensity (TANOUE cells; 20 μM)	Activity Range: weighted arithmetic mean (AVEw) of normalized fluorescence intensity, relative to DMSO basis level of 1.0 (A-431 cells; 20 μM)	Activity Range: weighted arithmetic mean (AVEw) of normalized fluorescence intensity (TT cells; 20 μM)	Activity Range: weighted arithmetic mean (AVEw) of normalized fluorescence intensity (BHY cells; 20 μM)	Activity Range: weighted arithmetic mean (AVEw) of normalized fluorescence intensity (LOU-NH91 cells; 20 μM)	Activity Range: weighted arithmetic mean (AVEw) of normalized fluorescence intensity (HeLa cells; 20 μM)	other results
CN(Cc1cnc2nc(N)nc(N)c2n1)c1ccc(C(=O)N[C@@H](CCC(=O)O)C(=O)O)cc1 [MTREX, Methotrexate]	0.1 ± 0.0	0.1 ± 0.0	0.1 ± 0.1	1.0 ± 0.0	0.9 ± 0.0	0.4 ± 0.1	0.6 ± 0.0	0.3 ± 0.0	0.5 ± 0.1	0.1 ± 0.0	0.1 ± 0.0	0.1 ± 0.0	0.2 ± 0.1	1.0 ± 0.0	0.3 ± 0.0	0.5 ± 0.1	0.4 ± 0.0	
Oc1ccc(C=Cc2cc(O)cc(O)c2)cc1 [RES, Resveratrol]	0.1 ± 0.0	0.6 ± 0.0	0.4 ± 0.1	0.7 ± 0.0	0.2 ± 0.0	0.6 ± 0.1	0.6 ± 0.0	0.5 ± 0.1	0.4 ± 0.1	0.8 ± 0.1	0.8 ± 0.0	0.1 ± 0.0	0.6 ± 0.1	0.9 ± 0.0	0.5 ± 0.1	0.9 ± 0.1	0.9 ± 0.0	Activity Range: weighted arithmetic mean (AVEw) of normalized fluorescence intensity (NB-4 cells; control at 40 μM): 0.0 ± 0.0; Activity Range: weighted arithmetic mean (AVEw) of normalized fluorescence intensity (RPMI-8402 cells; control at 40 μM): 0.1 ± 0.0; Activity Range: weighted arithmetic mean (AVEw) of normalized fluorescence intensity (HL-60 cells; control at 40 μM): 0.2 ± 0.1; Activity Range: weighted arithmetic mean (AVEw) of normalized fluorescence intensity (FU-OV-1 cells; control at 40 μM): 0.4 ± 0.0; Activity Range: weighted arithmetic mean (AVEw) of normalized fluorescence intensity, relative to DMSO basis level of 1.0 (HPEKp cells; control at 40 μM): 0.2 ± 0.0; Activity Range: weighted arithmetic mean (AVEw) of normalized fluorescence intensity (HH cells; control at 40 μM): 0.4 ± 0.1; Activity Range: weighted arithmetic mean (AVEw) of normalized fluorescence intensity (23132/87 cells; control at 40 μM): 0.2 ± 0.0; Activity Range: weighted arithmetic mean (AVEw) of normalized fluorescence intensity, relative to DMSO basis level of 1.0 (SCC-25 cells; control at 40 μM): 0.1 ± 0.0; Activity Range: weighted arithmetic mean (AVEw) of normalized fluorescence intensity (CAL-27 cells; control at 40 μM): 0.4 ± 0.3; Activity Range: weighted arithmetic mean (AVEw) of normalized fluorescence intensity, relative to DMSO basis level of 1.0 (C2C12 cells; control at 40 μM): 0.2 ± 0.1; Activity Range: weighted arithmetic mean (AVEw) of normalized fluorescence intensity (TANOUE cells; control at 40 μM): 0.0 ± 0.0; Activity Range: weighted arithmetic mean (AVEw) of normalized fluorescence intensity, relative to DMSO basis level of 1.0 (A-431 cells; control at 40 μM): 0.2 ± 0.0; Activity Range: weighted arithmetic mean (AVEw) of normalized fluorescence intensity (TT cells; control at 40 μM): 0.7 ± 0.0; Activity Range: weighted arithmetic mean (AVEw) of normalized fluorescence intensity (BHY cells; control at 40 μM): 0.3 ± 0.0; Activity Range: weighted arithmetic mean (AVEw) of normalized fluorescence intensity (LOU-NH91 cells; control at 40 μM): 0.7 ± 0.0; Activity Range: weighted arithmetic mean (AVEw) of normalized fluorescence intensity (HeLa cells; control at 40 μM): 0.4 ± 0.1
